According to ChEMBL document CHEMBL1201862, “PubChem BioAssay data set” (2004):
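Five compound concentrations were applied to cells in 96-well plates for 48 hours; endpoints were derived by simple linear interpolation of the resulting dose-response curve. Abbreviation: GI50, concentration required for 50% inhibition of growth.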 Activity calls are given as the source filed them. No stated cut-off is given here; in the data, active = GI50 up to about 1.1 µM and inactive = higher.

Columns and labels:
Test in all cases: NCI tumour cell line growth inhibition, 48 h
[1] = tested on: COLO 205
[2] = tested on: SF-539
[3] = tested on: OVCAR-5
[4] = tested on: M14
[5] = tested on: SK-MEL-5
[6] = tested on: UO-31
[7] = tested on: ACHN
[8] = tested on: UACC-62
[9] = tested on: MCF7
[10] = tested on: MDA-MB-231
[11] = tested on: PC-3
[12] = tested on: KM12
[13] = tested on: LOX IMVI
[14] = tested on: SW-620
[15] = tested on: HL-60
[16] = tested on: IGROV-1
[17] = tested on: HOP-62
[18] = tested on: NCI-H460

Row | Structure (SMILES) | GI50 [1] | GI50 [2] | GI50 [3] | GI50 [4] | GI50 [5] | GI50 [6] | GI50 [7] | GI50 [8] | GI50 [9] | GI50 [10] | GI50 [11] | GI50 [12] | GI50 [13] | GI50 [14] | GI50 [15] | GI50 [16] | GI50 [17] | GI50 [18]
1 | N#CC1=C(N)N(c2ccccc2)C(c2ccccc2)C1(C#N)C#N (stereo unspecified) | 17.2 µM (inactive) | 14.7 µM (inactive) | 16.1 µM (inactive) | 21 µM (inactive) | 13.5 µM (inactive) | 18.1 µM (inactive) | 18.1 µM (inactive) | 18.2 µM (inactive) | 14.8 µM (inactive) | 14.3 µM (inactive) | 17.7 µM (inactive) | 14.5 µM (inactive) | 16.6 µM (inactive) | 19.1 µM (inactive) | 17 µM (inactive) | 15.7 µM (inactive) | 18 µM (inactive) | –
2 | O=C(O)Cc1cccnc1 | > 100 µM (inactive) | > 100 µM (inactive) | > 100 µM (inactive) | > 100 µM (inactive) | > 100 µM (inactive) | > 100 µM (inactive) | > 100 µM (inactive) | > 100 µM (inactive) | > 100 µM (inactive) | > 100 µM (inactive) | > 100 µM (inactive) | > 100 µM (inactive) | > 100 µM (inactive) | > 100 µM (inactive) | – | > 100 µM (inactive) | > 100 µM (inactive) | > 100 µM (inactive)
3 | O=Cc1[nH]c(=O)[nH]c(=O)c1CCl | > 62.7 µM (inactive) | > 63.2 µM (inactive) | > 100 µM (inactive) | – | > 82 µM (inactive) | > 100 µM (inactive) | > 83 µM (inactive) | > 96.4 µM (inactive) | > 65.8 µM (inactive) | > 100 µM (inactive) | > 100 µM (inactive) | > 100 µM (inactive) | 30 µM (inactive) | 38.7 µM (inactive) | 38 µM (inactive) | > 100 µM (inactive) | > 100 µM (inactive) | > 55.8 µM (inactive)
4 | Cc1ccc(Cl)c2[nH]c(-c3ccccc3)cc(=O)c12 | 40.9 µM (inactive) | – | 76.4 µM (inactive) | 39.8 µM (inactive) | 15.8 µM (inactive) | – | 30.3 µM (inactive) | 48.2 µM (inactive) | 3.18 µM (inactive) | 38.9 µM (inactive) | 23.3 µM (inactive) | 21.4 µM (inactive) | 22.5 µM (inactive) | 39.2 µM (inactive) | 23 µM (inactive) | 33.7 µM (inactive) | 78.3 µM (inactive) | 37 µM (inactive)
5 | CC(C)OC(=O)[C@@H]1OC(C)(C)O[C@H]1C(=O)OC(C)C | > 100 µM (inactive) | > 100 µM (inactive) | > 100 µM (inactive) | – | > 100 µM (inactive) | > 100 µM (inactive) | > 100 µM (inactive) | > 100 µM (inactive) | > 100 µM (inactive) | > 100 µM (inactive) | > 100 µM (inactive) | > 100 µM (inactive) | > 100 µM (inactive) | > 100 µM (inactive) | – | > 100 µM (inactive) | > 100 µM (inactive) | > 100 µM (inactive)
6 | CCn1c(-c2ccc(OC)cc2)nc2c1C(=O)c1ccccc1C2=O | > 100 µM (inactive) | > 100 µM (inactive) | > 100 µM (inactive) | > 100 µM (inactive) | > 100 µM (inactive) | – | > 100 µM (inactive) | > 100 µM (inactive) | > 100 µM (inactive) | > 100 µM (inactive) | > 100 µM (inactive) | > 100 µM (inactive) | – | > 100 µM (inactive) | > 100 µM (inactive) | > 100 µM (inactive) | 59.6 µM (inactive) | > 100 µM (inactive)
7 | S=C(c1c[nH]c2ccccc12)N1CCN(c2ccccc2)CC1 | > 100 µM (inactive) | 71.6 µM (inactive) | > 100 µM (inactive) | > 100 µM (inactive) | 80 µM (inactive) | – | 87.1 µM (inactive) | > 100 µM (inactive) | > 100 µM (inactive) | > 100 µM (inactive) | > 100 µM (inactive) | 82.8 µM (inactive) | > 100 µM (inactive) | > 100 µM (inactive) | > 100 µM (inactive) | 7.11 µM (inactive) | 75.3 µM (inactive) | > 100 µM (inactive)
8 | COCCOCCOC1=CC(=O)c2c(O)ccc(O)c2C1=O | 0.296 µM (active) | 2.07 µM (inactive) | – | 0.971 µM (active) | 0.173 µM (active) | 1.62 µM (inactive) | 1.61 µM (inactive) | 1.45 µM (inactive) | 0.555 µM (active) | 1.49 µM (inactive) | 2.48 µM (inactive) | 1.83 µM (inactive) | 1.52 µM (inactive) | 0.571 µM (active) | 0.505 µM (active) | 1.82 µM (inactive) | 1.71 µM (inactive) | 1.91 µM (inactive)
9 | COC(=O)CCC1=NCC(C)(C)O1 | > 10 µM (inactive) | > 10 µM (inactive) | > 10 µM (inactive) | > 10 µM (inactive) | > 10 µM (inactive) | > 10 µM (inactive) | > 10 µM (inactive) | > 10 µM (inactive) | > 10 µM (inactive) | > 10 µM (inactive) | > 10 µM (inactive) | > 10 µM (inactive) | > 10 µM (inactive) | > 10 µM (inactive) | – | > 10 µM (inactive) | > 10 µM (inactive) | > 10 µM (inactive)
10 | COc1cc(NCc2ccc3n2-c2ccccc2OC3)cc(OC)c1OC | 12.9 µM (inactive) | – | 46.5 µM (inactive) | 31 µM (inactive) | 15.6 µM (inactive) | 16.8 µM (inactive) | 30.1 µM (inactive) | 19 µM (inactive) | 14.1 µM (inactive) | 14.4 µM (inactive) | 22.8 µM (inactive) | 40.7 µM (inactive) | 10.4 µM (inactive) | 35.6 µM (inactive) | 17.7 µM (inactive) | 14 µM (inactive) | 43.5 µM (inactive) | 30.1 µM (inactive)
11 | CCOP(=O)(/C=C\n1ccc(N)nc1=O)OCC | > 100 µM (inactive) | > 100 µM (inactive) | > 100 µM (inactive) | > 100 µM (inactive) | > 100 µM (inactive) | – | > 100 µM (inactive) | > 100 µM (inactive) | > 100 µM (inactive) | > 100 µM (inactive) | > 100 µM (inactive) | > 100 µM (inactive) | > 100 µM (inactive) | > 100 µM (inactive) | > 100 µM (inactive) | > 100 µM (inactive) | > 100 µM (inactive) | > 100 µM (inactive)
12 | O=C(/C=C/c1ccc(O)c(O)c1)NC(COC(=O)/C=C/c1ccc(O)c(O)c1)C(=O)O (stereo unspecified) | > 100 µM (inactive) | > 100 µM (inactive) | > 100 µM (inactive) | > 100 µM (inactive) | > 100 µM (inactive) | > 100 µM (inactive) | > 100 µM (inactive) | > 100 µM (inactive) | > 100 µM (inactive) | > 100 µM (inactive) | > 100 µM (inactive) | > 100 µM (inactive) | > 100 µM (inactive) | > 100 µM (inactive) | – | > 100 µM (inactive) | > 100 µM (inactive) | > 100 µM (inactive)
